Assay [1] deals with Nisin Z-producing strain (parent strain). As to the kind of experiment: Growth of parent strain on Nisin-containing M17 medium (MIC). Format: cell-based, Lactococcus lactis. The settings on record: 30° C., 2 days. On the procedure: A Nisin Z-producing strain (parent strain shown in Table 3) separated from its native environment was plated on M17 medium (manufactured by Difco) prepared such that a Nisin concentration became 1,000, 2,000, 5,000 or 10,000 IU/mL, and was cultured at 30° C. for 2 days. This strain grew in M17 medium having a Nisin concentration of 1,000 or 2,000 IU/mL, but not in M17 medium having a Nisin concentration of 5,000 or 10,000 IU/mL. From the results, it was confirmed that the minimum growth inhibitory concentration (MIC) of this strain to Nisin was 5,000 IU/mL.

The subject of assay [2] is Nisin Z-producing lactic acid bacteria (mutated strain). As to the kind of experiment: Growth of NTG-mutated Nisin Z-producing lactic acid bacteria in Nisin-containing M17 medium. It is filed as cell-based, Lactococcus lactis. On the procedure:
The Nisin Z-producing lactic acid bacteria separated from its native environment were precultured in M17 medium, and the lactic acid bacteria were treated with 500 μg/mL of NTG to induce mutation.

For Nisin, the “minimum growth inhibitory concentration (MIC) of this strain to Nisin” value in assay [1] is 5,000 IU/mL. Besides, the Growth number came to 1.20E+09 cell/ml in assay [2] (Nisin conc. 1,000 IU/ml); 1.20E+09 cell/ml in assay [2] (Nisin conc. 2,000 IU/ml); 1.20E+09 cell/ml in assay [2] (Nisin conc. 4,000 IU/ml); 7.00E+08 cell/ml in assay [2] (Nisin conc. 8,000 IU/ml); 1.14E+08 cell/ml in assay [2] (Nisin conc. 10,000 IU/ml); 3.21E+07 cell/ml in assay [2] (Nisin conc. 20,000 IU/ml). Moreover, the results for the Growth number in assay [2] (Nisin conc. 40,000 IU/ml), in assay [2] (Nisin conc. 80,000 IU/ml) and in assay [2] (Nisin conc. 100,000 IU/ml) were 9.35E+05 cell/ml, 1.16E+03 cell/ml and 4.76E+02 cell/ml, respectively.
